The source of these data is ChEMBL document CHEMBL1201862, “PubChem BioAssay data set” (2004).

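Briefly, cells in 96-well plates were exposed to five compound concentrations for 48 h, and endpoints were estimated by linear interpolation. The concentration for 50% growth inhibition is given as GI50.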 Activity calls are given as the source filed them. Rule as the data show it: active = GI50 up to about 1.1 µM and inactive = higher. Where only a bound is given, the exact number is not on record here.

Test in all cases: inhibition of tumour cell growth, NCI panel, 48 h
For experiment [1], the system named is UACC-62.
For experiment [2], the system named is SR.
Experiment [3] has as its system SK-MEL-5.
Experiment [4] relates to NCI-H460.
Experiment [5] relates to 786-0.
Experiment [6] concerns NCI-H226.
The test system of experiment [7] is UACC-257.
Experiment [8] relates to OVCAR-3.
Experiment [9] deals with Malme-3M.
The subject of experiment [10] is ACHN.
Experiment [11] has as its system OVCAR-8.
Experiment [12] has as its system NCI-H522.
For experiment [13], the system named is MOLT-4.
For experiment [14], the system named is OVCAR-5.
In experiment [15] the test system is CAKI-1.
Experiment [16] deals with HCT-116.
Experiment [17] deals with MCF7.

With `O=C(/C=C/c1ccco1)c1ccc(NCc2nc3ccccc3[nH]2)cc1`, the GI50 is 14 µM (inactive) in experiment [1]; 10.8 µM (inactive) in experiment [2]; 14.8 µM (inactive) in experiment [3]; 23.3 µM (inactive) in [4]; 14.6 µM (inactive) in [5]; 1.73 µM (inactive) in experiment [6]. The GI50 in experiment [7] is 11.1 µM (inactive); in [8] it was 16.6 µM (inactive); in experiment [9], 19 µM (inactive); in experiment [10], 17.5 µM (inactive); in experiment [11], 17.9 µM (inactive); in experiment [12], 9.62 µM (inactive). In addition, the GI50 is 10.4 µM (inactive) in experiment [13], 17.7 µM (inactive) in [14] and 17.2 µM (inactive) in experiment [15].
`COCCOCOC(C)(C)[C@H](CCOC(C)=O)O[Si](c1ccccc1)(c1ccccc1)C(C)(C)C`: the GI50 in experiment [1] is 15.7 µM (inactive); in experiment [2], 4.42 µM (inactive); in experiment [3], 10.5 µM (inactive); in experiment [4] it was 5.74 µM (inactive); in experiment [5], 18 µM (inactive); in [6], 3.72 µM (inactive). The GI50 in experiment [7] was 7.19 µM (inactive); in [8] it was 11 µM (inactive); in experiment [9], 16.6 µM (inactive); in experiment [16], 5.93 µM (inactive); in experiment [10] it was 15.2 µM (inactive); in [11] it was 11.9 µM (inactive). Further, the GI50 was 5.52 µM (inactive) in experiment [12], 3.75 µM (inactive) in [13], 16.8 µM (inactive) in [14] and 26.2 µM (inactive) in experiment [15].
With `O=C1NCC2=C1CCC1c3ccccc3CCN21` (stereo not drawn), the GI50 in experiment [1], in experiment [2], in experiment [3], in [4], in [5] and in [6] was > 100 µM (inactive) throughout. Also, the GI50 in experiment [7], in experiment [8], in experiment [9], in experiment [16], in [10] and in experiment [11] was > 100 µM (inactive) each time. Moreover, the GI50 in experiment [12], in experiment [13], in experiment [14] and in [15] was > 100 µM (inactive) throughout.
As for `O=C1NC(Cc2ccc(O)cc2)C(=O)N2CCCC12` (stereo not drawn), the GI50 in experiment [1], in [2], in experiment [3], in experiment [4], in [5] and in experiment [6] was > 100 µM (inactive) throughout. Besides, the GI50 in experiment [7], in experiment [8], in experiment [9], in [16], in experiment [10] and in experiment [11] was > 100 µM (inactive) throughout. The GI50 in [12], in [13], in [14] and in experiment [15] was > 100 µM (inactive) in each case.
Regarding `CCCC(=O)N[C@H]1C2C3CC4C5CC(C42)C1(C)C53` (stereo partly drawn), the GI50 in [1], in experiment [2], in experiment [3], in [4], in experiment [5] and in experiment [6] was > 100 µM (inactive) each time. Further, the GI50 in experiment [7], in [8], in experiment [9], in experiment [16], in experiment [10] and in experiment [12] was > 100 µM (inactive) throughout. Moreover, the GI50 in experiment [13], in [14] and in experiment [15] was > 100 µM (inactive) throughout.
In the case of `O=C(CC1(O)C(=O)Nc2c(Cl)cc(Cl)cc21)c1ccc(Br)cc1` (stereo not drawn), the GI50 in experiment [1] is 9.08 µM (inactive); in experiment [2] it was 19.8 µM (inactive); in experiment [3], 16.9 µM (inactive); in experiment [4] it was 38.6 µM (inactive); in [5], 13.2 µM (inactive); in experiment [6], 14.9 µM (inactive). Further, the GI50 in experiment [7] is 29.4 µM (inactive); in experiment [8] it was 14.1 µM (inactive); in [9], > 41.3 µM (inactive); in experiment [16] it was 17.5 µM (inactive); in [10] it was 15.3 µM (inactive); in experiment [11], 33.8 µM (inactive). The GI50 in experiment [12] was 16.6 µM (inactive); in [13] it was 22.1 µM (inactive); in [14] it was 17.2 µM (inactive); in experiment [15], 16.1 µM (inactive).
For the compound `CC1(C)CC(=O)C(C(=O)Nc2cccs2)=C(O)C1`, the GI50 in experiment [1] was 29.2 µM (inactive); in experiment [2], 29.9 µM (inactive); in experiment [3] it was 40.6 µM (inactive); in experiment [4], 35.9 µM (inactive); in [5], 49.9 µM (inactive); in experiment [6], 23.4 µM (inactive). Moreover, the GI50 was 47.9 µM (inactive) in [7]; 29.4 µM (inactive) in [8]; 32.1 µM (inactive) in [9]; 29.7 µM (inactive) in experiment [16]; 32.7 µM (inactive) in experiment [10]; 34.8 µM (inactive) in experiment [11]. For the same compound, the GI50 in experiment [12] was 37.2 µM (inactive); in [13], 28 µM (inactive); in [14], 44 µM (inactive); in experiment [15] it was 14.6 µM (inactive).
`CC(=O)O[C@H]1[C@@H]2[C@@H]3[C@@H](C[C@H]1C)[C@@H](C)CO[C@@]1(C)CC/C=C(/C)C[C@@H]2O[C@@H]31`: the GI50 in [1], in experiment [2], in [3], in experiment [4], in experiment [5] and in [6] was > 100 µM (inactive) each time. The GI50 in [7], in experiment [8], in experiment [9], in [16], in experiment [10] and in experiment [11] was > 100 µM (inactive) throughout. Further, the GI50 in experiment [12], in [13], in experiment [14] and in [15] was > 100 µM (inactive) in each case.
Regarding `CC1(C)OCC([C@H]2CC23SCCCS3)O1` (stereo partly drawn), the GI50 in [1], in [2], in experiment [3], in experiment [4], in experiment [5] and in [6] was > 100 µM (inactive) each time. In addition, the GI50 in [7], in experiment [9], in [16], in [10], in [11] and in [12] was > 100 µM (inactive) throughout. Moreover, the GI50 in [13], in experiment [14] and in experiment [15] was > 100 µM (inactive) each time.
For `CC[C@@H]1OC2(C)CC(S(=O)(=O)c3ccccc3O)CC1O2` (stereo partly drawn), the GI50 in experiment [1], in experiment [2], in [3], in experiment [4], in experiment [5] and in experiment [6] was > 100 µM (inactive) in each case. Also, the GI50 in [7], in experiment [8], in experiment [9], in experiment [16], in [10] and in experiment [11] was > 100 µM (inactive) each time. In addition, the GI50 in [12] was > 100 µM (inactive); in experiment [13], > 100 µM (inactive); in [14], > 100 µM (inactive); in [15] it was < 0.01 µM (active).
Consider `[N-]=[N+]=CC(=O)OC1CCc2ccccc21` (stereo not drawn), for which the GI50 in experiment [1] was > 100 µM (inactive); in experiment [2], > 100 µM (inactive); in experiment [3], 85.1 µM (inactive); in experiment [4], 47.8 µM (inactive); in [5] it was 61.9 µM (inactive); in experiment [6] it was > 100 µM (inactive). Moreover, the GI50 in experiment [7] was > 100 µM (inactive); in experiment [8] it was > 100 µM (inactive); in [9] it was > 100 µM (inactive); in experiment [16], > 100 µM (inactive); in experiment [10], 9.95 µM (inactive); in experiment [12], > 100 µM (inactive). For the same compound, the GI50 is 46.5 µM (inactive) in experiment [14], 26 µM (inactive) in experiment [15] and 71.1 µM (inactive) in [17].
In the case of `CCCCCCCCC[C@@H]1CC(=O)OCC2OC(O[C@H](CCCCCCCCC)CC(=O)OCC3OC(O[C@H](CCCCCCCCC)CC(=O)OCC4OC(O1)C(O)C(O)C4O)C(O)C(O)C3O)C(O)C(O)C2O` (stereo partly drawn), the GI50 is 14.9 µM (inactive) in experiment [1]; 6.7 µM (inactive) in experiment [2]; 12.5 µM (inactive) in [3]; 5.13 µM (inactive) in [4]; 0.957 µM (active) in experiment [5]; 3.9 µM (inactive) in experiment [6]. Besides, the GI50 in experiment [7] was 10.8 µM (inactive); in experiment [8] it was 18 µM (inactive); in experiment [9], 8.83 µM (inactive); in [16] it was 8.18 µM (inactive); in experiment [10], 13.2 µM (inactive); in experiment [11], 14.3 µM (inactive). Moreover, the GI50 in [12] was 8.73 µM (inactive); in [13], 6.22 µM (inactive); in experiment [14], 10.7 µM (inactive); in experiment [15], 3.21 µM (inactive).
